Source: patent US8318799B2, “Therapeutic agent for substance dependence” (National University Corporation Kyushu University, priority 2004, dated 2012)

Legend:
[1] = tested on: male Wister/ST rats; test: methamphetamine-seeking behavior induced by drug-associated cue (drug self-administration procedure, after extinction); format: in vivo, rat; conditions: for antagonism in cue-induced methamphetamine-seeking behavior on coadministration with the compound of the present invention: 30 minutes before cue, FIG. 7
From the text: (§1) First, an experimental animal is allowed to learn the drug self-administration behavior of pressing a lever to attain a substance. The animal is given a substance-containing solution simultaneously with a light-tone stimulus. After the animal is allowed to learn the substance self-administration behavior, the substance-containing solution is replaced by physiological saline. The behavior of eagerly pressing the lever for acquiring the substance comes to be observed in the experimental animal having learned the substance self-administration behavior. This behavior is regarded as substance-seeking behavior. […] However, the substance-seeking behavior will recur by the same light-tone stimulus (drug-associated stimuli) used during the self-administration training to the experimental animal or by administrating a substance inducing the central stimulant effect. This experimental system was used to examine the effect of various compounds.
(§2) Using methamphetamine as an addictive substance, the following experiments were carried out according to a method described in Neuropsychopharmacology, 29, 1470-1478 (2004).
(§3) A catheter for self-administration of methamphetamine (inner diameter of 0.5 mm, outer diameter of 1.0 mm) was inserted into the right jugular vein of male Wister/ST rats (250 to 350 g), and the end of the catheter was anchored to just outside the right atrium. An operant box used in the experiment was equipped with 2 levers. One is an active lever by which when pressed once (fixed-ratio 1 (FR1)), infusions of a very low dose of methamphetamine (0.02 mg per injection) was paired with onset of a 6-sec tone (70 dB/7 kHz) and light (300 lux) compound stimulus.
(§4) After the animal was allowed to get methamphetamine self-administration behavior (methamphetamine-taking behavior) by the self-administration experiment for 10 days (2 hours per session), physiological saline was substituted for methamphetamine, to carry out an extinction process for 5 days (1 hour per session without drug-associated cue).
On day 6 of the extinction process, substance-seeking behavior (“craving”) was induced by drug-associated cue (tone and light) or by administering a low dose of methamphetamine (1.0 mg/kg, intraperitoneal (i.p.) administration).
Thirty minutes before this stimulation with the drug-associated cue or by the administration of a low dose of methamphetamine, […] administration of the compound of the present invention (0.32, 1.0 mg/kg, i.p.) was carried out, and a change in the methamphetamine-seeking behavior induced by drug-associated cue or by forced administration of methamphetamine was observed. […]

[2] = tested on: male Wister/ST rats; test: methamphetamine-seeking behavior induced by forced administration of a low dose of methamphetamine (drug self-administration procedure, after extinction); format: in vivo, rat
From the text: as §1, §2, §3
as §4, with “cue). […]” for “cue).”

[3] = tested on: male Wister/ST rats; test: influence on methamphetamine-taking behavior (methamphetamine self-administration); format: in vivo, rat; conditions: 1.0 mg/kg intraperitoneally; FIG. 5
From the text: FIG. 5 is a graph showing the influence of the compound of the present invention on methamphetamine self-administration.
as §3, §4
For examining the influence of the compound of the present invention on methamphetamine-taking behavior, 1.0 mg/kg of the compound of the present invention was administered intraperitoneally.

[4] = tested on: male Wister/ST rats; test: influence on occurrence of substance-seeking behavior by the compound itself; format: in vivo, rat; conditions: high dose 10 mg/kg i.p.; FIG. 6
[5] = Eur. J. Pharmacol. 421, 181-189 (2001); cited from earlier work

In the case of `CCCNC(CCC)Cc1cc2ccccc2o1` (single isomer, unassigned; (-)) [the compound of the present invention, (−)-1-(benzofuran-2-yl)-2-propylaminopentane], the “methamphetamine-seeking behavior induced by drug-associated cue” value ([1]; repeated administration 1.0 mg/kg i.p. in the extinction process for 5 days, FIG. 3) is reported as “suppressed significantly”, the “methamphetamine-seeking behavior (number of active lever-pressings, 30 minutes) induced by drug-associated cue” value ([1]; single administration 0.32, 1.0 mg/kg i.p., 30 minutes before stimulation, day 6 of extinction, FIG. 1) is reported as “suppressed significantly and dose-dependently” and the “methamphetamine-seeking behavior induced by forced administration of methamphetamine” value ([2]; repeated administration 1.0 mg/kg i.p. in the extinction process for 5 days, FIG. 4) is reported as “suppressed significantly”. The “methamphetamine-seeking behavior (number of active lever-pressings, 30 minutes) induced by forced administration of methamphetamine” value ([2]; single administration 0.32, 1.0 mg/kg i.p., 30 minutes before methamphetamine 1.0 mg/kg i.p., day 6 of extinction, FIG. 2) was “suppressed significantly and dose-dependently”, the “influence on methamphetamine-taking behavior (number of active lever pressings for self-administration)” value [3] was “did not exert any influence” and the “occurrence of methamphetamine-seeking behavior after the compound alone” value [4] was “although weak, caused methamphetamine-seeking behavior”. The “reduction in spontaneous motor activity induced by reserpine” value [5] was “improves”.

For `CN1CCc2cc(Cl)c(O)cc2[C@@H](c2ccccc2)C1.Cl` [SCH23390, R-(+)-7-chloro-8-hydroxy-3-methyl-1-phenyl-2,3,4,5-tetrahydro-1H-3-benza zepine hydrochloride, reference compound], the “antagonism in cue-induced methamphetamine-seeking behavior on coadministration with the compound of the present invention” value ([1]; SCH23390 0.0001 mg/kg s.c. with the compound of the present invention (0.32, 1.0 mg/kg i.p.)) was “showed a tendency to be antagonized”.

For `CCN1CCCC1CNC(=O)c1cc(S(=O)(=O)CC)ccc1OC` (stereo not shown) [sultopride, reference compound], the “antagonism in cue-induced methamphetamine-seeking behavior on coadministration with the compound of the present invention” value ([1]; sultopride 10 mg/kg i.p. with the compound of the present invention (0.32, 1.0 mg/kg i.p.)) was “not” and the “antagonism in methamphetamine-induced methamphetamine-seeking behavior on coadministration with the compound of the present invention” value ([2]; sultopride 10 mg/kg i.p. with the compound of the present invention (0.32, 1.0 mg/kg i.p.), 30 minutes before low dose of methamphetamine, FIG. 8) was “not”.
